Reference: patent US20260007601A1, “IONIZABLE CATIONIC LIPID COMPOUND AND COMPOSITION FOR DELIVERING NUCLEIC ACID AND USE THEREOF” (BEIJING YOUCAREKECHUANG PHARMACEUTICAL TECHNOLOGY CO., LTD., priority 2023, published 2026)
Blank lines part the entries; values can stand above or below the molecule they belong to.

Tests used:
[1] = Particle size and polydispersity index (PDI) of nanolipid particles, dynamic light scattering; type: physicochemical; conditions: LNP formulation prepared from the named cationic lipid, 25° C
Description: The particle size and polydispersity index (PDI) were determined by dynamic light scattering method using a Malvern laser particle size analyzer. 10 μL of liposome solution was diluted to 1 mL with RNase-free deionized water and added to a sample pool. Each sample was measured three times. The measurement conditions were: 90° scattering angle, 25° C.

[2] = Encapsulation rate, drug loading concentration and total RNA concentration detection (RiboGreen); type: physicochemical; conditions: for Drug loading concentration / Encapsulation rate / Total RNA concentration: LNP formulation of the named lipid
Excerpt: Encapsulation rate is a key quality attribute of liposomes. It refers to the percentage of drug content encapsulated in the lipid bilayer to the total amount of drug added, which can reflect the degree of drug encapsulation in liposomes. The Chinese Pharmacopoeia stipulates that the encapsulation rate should usually not be less than 80%.
The drug loading capacity is the ratio of the amount of drug in the liposome to the total amount of drug and carrier in the liposome. The drug loading capacity directly affects the clinical application dose of the drug, so the larger the drug loading capacity, the more it can meet clinical needs. The drug loading concentration is proportional to the drug loading capacity, and the relative proportion of the drug loading concentration can represent the relative proportion of the drug loading capacity. The relative proportion of the total RNA concentration can represent the relative proportion of the amount of mRNA carried by the LNP formulation.
1×TE buffer, 0.1% Triton X-100 buffer, and RiboGreen reagent (1:200) and mRNA standard stock solution were prepared.
An appropriate amount of sample was taken and added to an appropriate amount of 1×TE buffer, which was diluted to a solution containing about 2.8 μg of the test sample per 1 mL. Then the sample was added to a 96-well plate, where 50 μL of the diluted test sample or mRNA standard stock solution was added to each well, and then added with 1×TE buffer and 0.1% Triton X-100 buffer. The samples were incubated at 37° C. for 10 minutes, and 100 μL of RiboGreen reagent (1:200) was added to each well of the 96-well plate. The plate was centrifuged, and read using an ELISA reader, and the data was processed.

293T cells [3] = assay: Fluorescence detection of Fluc-mRNA (cell transfection efficiency of LNP formulations); type: cell-based; conditions: for Relative light unit (RLU): LNP containing 0.3 μg Fluc-mRNA, 24 hours; for Multiples of values that equivalent to YK-201: RLU of YK-201 / RLU of the named lipid; for Multiples of values that equivalent to YK-202: RLU of YK-202 / RLU of the named lipid; for Multiples of values that equivalent to YK-209: RLU of YK-209 / RLU of the named lipid; for Ratio relative to SM-102: RLU of the named lipid / RLU of SM-102, times that of SM-102
Description: (§1) Cell recovery and passaging: 293T cells were recovered and cultured in culture dishes to the required cell number.
(§2) Plating: The cells in the culture dish were digested, counted, plated in a 96-well plate at 10,000 cells per well, or in a 12-well plate at 150,000 cells per well, and cultured overnight until the cells adhered to the wall.
(§3) Cell recovery and passage: The method was the same as in Example 3.
(§4) Plating: The method was the same as Example 3.
The LNP formulation containing 0.3 μg Fluc-mRNA (prepared according to Example 4, the LNP formulation carrier components were cationic lipids, neutral lipids, structured lipids and polymer-conjugated lipids at a molar ratio of 49:10:39.5:1.5, and the cationic lipids were cationic lipids listed in Table 1) was added to the cell culture medium of a 96-well plate, and cultured for 24 hours. After that, the corresponding reagents were added according to the instructions of the Gaussia Luciferase Assay Kit, and the fluorescence expression intensity of each well was detected by the IVIS fluorescence detection system. This experiment verified the transfection efficiency of the LNP formulation in the cell, and the specific detection results are shown in Tables 6-9.

293T cells [4] = assay: Cell survival rate assay (CCK-8); type: cell-based; conditions: for Cell survival rate: LNP containing 1.5 μg Fluc-mRNA, 24 hours, CCK-8
Description: as §1, §2, §3, §4
The LNP formulations containing 1.5 μg Fluc-mRNA (prepared according to Example 4, the LNP formulation carrier components are cationic lipids, neutral lipids, structured lipids and polymer-conjugated lipids at a molar ratio of 49:10:39.5:1.5, wherein the cationic lipids are the cationic lipids listed in Table 1) and the Lipofectamine 3000 formulation were added to the cell culture medium of the 96-well plate, and the culture was continued for 24 hours. Then, 10 μL of CCK-8 solution was added to each well, and the culture plate was incubated in the incubator for 1 hour, and the absorbance at 450 nm was measured by a microplate reader.

female BALB/C mice = assay: Mouse in vivo imaging of Fluc-mRNA LNP formulations; set-up: average radiation intensity (mRNA expression): unit not given here; conditions: for average radiation intensity (mRNA expression): 10 μg Fluc-mRNA LNP intramuscularly
Description: The LNP formulation containing 10 μg Fluc-mRNA (prepared according to Example 4) was injected intramuscularly into female BALB/C mice aged 4 to 6 weeks and weighing 17 to 19 g, and the mice were intraperitoneally injected with fluorescent imaging substrates at specific time points (6 h, 24 h, 48 h and 7 d) after administration. The mice moved freely for 5 minutes, and then the average radiation intensity (corresponding to the fluorescence expression intensity) of the protein expressed by the mRNA carried by the LNP in the mice was detected by IVIS Spectrum small animal in vivo imager. The test results are shown in Tables 14 to 17 and FIGS. 12 to 14.

Structure (SMILES): CCCCCCCCCCOC(=O)CCCN(CCCCCC(=O)OCC(CCCCCCCC)CCCCCCCC)CCN(C)CCO [YK-207, 2-octyldecyl-6-(2-((2-(2-hydroxyethyl(methyl)amino)ethyl)(4-oxo-4-((decyloxy)butyl)amino) hexanoate]
PDI [1]: 18.9% | Particle size [1]: 192 nm | drug loading concentration, times that of ALC-0315 [2]: 1.52 times | drug loading concentration, times that of HHMA [2]: 1.29 times | drug loading concentration, times that of SM-102 [2]: 1.56 times | drug loading concentration, times that of YK-009 [2]: 1.47 times | drug loading concentration, times that of compound 21 [2]: 1.75 times | drug loading concentration, times that of compound 23 [2]: 1.91 times | total RNA concentration, times that of ALC-0315 [2]: 1.18 times | total RNA concentration, times that of HHMA [2]: 1.15 times | total RNA concentration, times that of SM-102 [2]: 1.24 times | total RNA concentration, times that of YK-009 [2]: 1.13 times | total RNA concentration, times that of compound 21 [2]: 1.42 times | total RNA concentration, times that of compound 23 [2]: 1.34 times | Drug loading concentration [2]: 39.60 µg/mL | Encapsulation rate [2]: 90.8% | Total RNA concentration [2]: 43.63 µg/mL | encapsulation rate higher than that of ALC-0315 ([2]; difference of rates): 28.00% | encapsulation rate higher than that of HHMA ([2]; difference of rates): 30.30% | encapsulation rate higher than that of SM-102 ([2]; difference of rates): 28.50% | encapsulation rate higher than that of YK-009 ([2]; difference of rates): 27.80% | encapsulation rate higher than that of compound 21 ([2]; difference of rates): 33.00% | encapsulation rate higher than that of compound 23 ([2]; difference of rates): 35.60% | RLU / cell transfection efficiency, times that of ALC-0315 (293T cells [3]; Fluc-mRNA LNP): 9 times | RLU / cell transfection efficiency, times that of HHMA (293T cells [3]; Fluc-mRNA LNP): 10 times | RLU / cell transfection efficiency, times that of Lipofectamine 3000 (293T cells [3]; Fluc-mRNA LNP): 17 times | RLU / cell transfection efficiency, times that of YK-009 (293T cells [3]; Fluc-mRNA LNP): 4 times | RLU / cell transfection efficiency, times that of compound 21 (293T cells [3]; Fluc-mRNA LNP): 14 times | RLU / cell transfection efficiency, times that of compound 23 (293T cells [3]; Fluc-mRNA LNP): 15 times | cell transfection efficiency, times that of YK-221 (293T cells [3]; Fluc-mRNA LNP): 960.71 times | fluorescence absorption value / cell transfection efficiency, times that of YK-220 (293T cells [3]; Fluc-mRNA LNP): 124.13 times | Relative light unit (RLU) (293T cells [3]): 20878758 RLU | Multiples of values that equivalent to YK-201 (293T cells [3]): 1.36 | Multiples of values that equivalent to YK-202 (293T cells [3]): 1.43 | Multiples of values that equivalent to YK-209 (293T cells [3]): 1.29 | Cell survival rate (293T cells [4]): 73.88% | cell survival rate higher than that of ALC-0315 (293T cells [4]; difference of rates): 23.92% | cell survival rate higher than that of HHMA (293T cells [4]; difference of rates): 8.32% | cell survival rate higher than that of Lipofectamine 3000 (293T cells [4]; difference of rates): 50.83% | cell survival rate higher than that of SM-102 (293T cells [4]; difference of rates): 5.33% | cell survival rate higher than that of compound 21 (293T cells [4]; difference of rates): 4.86% | cell survival rate higher than that of compound 23 (293T cells [4]; difference of rates): 3.78% | average radiation intensity (mRNA expression) (female BALB/C mice; 6 h): 1974100 | average radiation intensity (mRNA expression) (female BALB/C mice; 24 h): 1523040 | average radiation intensity (mRNA expression) (female BALB/C mice; 48 h): 525800 | average radiation intensity (mRNA expression) (female BALB/C mice; 7 d): 22896 | mRNA expression level in mice can reach, times that of ALC-0315 (female BALB/C mice; time point not stated): 13 times | mRNA expression level in mice can reach, times that of HHMA (female BALB/C mice; time point not stated): 16 times | mRNA expression level in mice can reach, times that of SM-102 (female BALB/C mice; time point not stated): 16 times | mRNA expression level in mice can reach, times that of compound 21 (female BALB/C mice; time point not stated): 16 times | mRNA expression level in mice can reach, times that of compound 23 (female BALB/C mice; time point not stated): 16 times

PDI [1]: 8.6% | Particle size [1]: 138 nm | Drug loading concentration [2]: 20.7 µg/mL | Encapsulation rate [2]: 55.2% | Total RNA concentration [2]: 32.51 µg/mL
Structure (SMILES): CCCCCCC(CCCCCC)CCOC(=O)CCCCCCCN(CCO)CCCCCCCC(=O)OCCC(CCCCCC)CCCCCC [Compound 23, bis(3-hexylnonyl)8,8′-((2-hydroxyethyl)azadialkyl)dioctanoate, reference compound]
Relative light unit (RLU) (293T cells [3]): 1332014 RLU | Multiples of values that equivalent to YK-201 (293T cells [3]): 21.38 | Multiples of values that equivalent to YK-202 (293T cells [3]): 22.49 | Ratio relative to SM-102 (293T cells [3]): 0.80 | Cell survival rate (293T cells [4]): 70.10% | average radiation intensity (mRNA expression) (female BALB/C mice; 6 h): 594050 | average radiation intensity (mRNA expression) (female BALB/C mice; 24 h): 110870 | average radiation intensity (mRNA expression) (female BALB/C mice; 48 h): 32074 | average radiation intensity (mRNA expression) (female BALB/C mice; 7 d): 5827

PDI [1]: 15.9% | Particle size [1]: 218 nm | Drug loading concentration [2]: 26.05 µg/mL | Encapsulation rate [2]: 62.8% | Total RNA concentration [2]: 37.12 µg/mL
Structure (SMILES): CCCCCCCCC(CCCCCC)C(=O)OCCCCCCN(CCCCO)CCCCCCOC(=O)C(CCCCCC)CCCCCCCC (centres unmarked) [ALC-0315, reference compound]
Relative light unit (RLU) (293T cells [3]): 2147045 RLU | Multiples of values that equivalent to YK-201 (293T cells [3]): 13.27 | Multiples of values that equivalent to YK-202 (293T cells [3]): 13.95 | Multiples of values that equivalent to YK-209 (293T cells [3]): 12.51 | Ratio relative to SM-102 (293T cells [3]): 1.29 | Cell survival rate (293T cells [4]): 49.96% | average radiation intensity (mRNA expression) (female BALB/C mice; 6 h): 842355 | average radiation intensity (mRNA expression) (female BALB/C mice; 24 h): 182350 | average radiation intensity (mRNA expression) (female BALB/C mice; 48 h): 38130 | average radiation intensity (mRNA expression) (female BALB/C mice; 7 d): 6588
